# Source: patent US7629359B2, “Use of piperidine derivatives as dermo-decontracting agents” (L'Oreal, priority 2004, dated 2009)
# System: dermis equivalent model consisting of a matrix of collagen seeded with normal human fibroblasts
# Assay: Dermo-decontracting effect on dermis equivalent model (spontaneous contraction of collagen gel)
# Format: cell-based
# Conditions: for activity as dermo-decontracting agent in the test of Example 1: dermis equivalent test presented in Example 1
Structure (SMILES),activity as dermo-decontracting agent in the test of Example 1,"reduction of the contraction of the fibroblasts compared with the control (1 μM test compound, on average over the duration of the experiment (0, 4, 8 and 24 hours), experiment repeated three times) [%]"
CN1C(=O)CN=C(c2ccccc2)c2cc(Cl)ccc21 [diazepam],not active,–
COc1ccc([C@@H]2Sc3ccccc3N(CCN(C)C)C(=O)[C@@H]2OC(C)=O)cc1 [diltiazem],not active,–
O=C(O)/C=C\C(=O)O.c1ccc(CCCCN2CCC(c3ccccc3)CC2)cc1 [maleic acid salt of 4-phenyl-1-(4-phenylbutyl)piperidine],–,17
CCOC(=O)C1=C(C)NC(C)=C(C(=O)OC)C1c1cccc([N+](=O)[O-])c1 (stereo not shown) [nitrendipine],not active,–
